Measurements as given in ChEMBL document CHEMBL4196003, “The selectivity and bioavailability improvement of novel oral anticoagulants: An overview” (Eur J Med Chem, 2018).
Values after ≈ are worked out from the molar mass of the structure shown. Blank lines part the entries; values can stand above or below the compound they belong to.

What was measured:
[1] = cynomolgus monkey, plasma, iv, 0.06 mg/kg
Description: Plasma concentration in cynomolgus monkey at 60 ug/kg/min, iv

[2] = molecular target: T1, Coagulation factor X (Homo sapiens, UniProt P00742)
[3] = molecular target: T2, Coagulation factor VII/tissue factor (Homo sapiens, UniProt P08709); format: protein-complex assay
[4] = molecular target: T3, Prothrombin (Homo sapiens, UniProt P00734)
[5] = molecular target: T1, Coagulation factor X; remark: listed apart in the source
[6] = cynomolgus monkey, plasma, iv, 0.4 mg/kg
Description: Plasma concentration in cynomolgus monkey at 400 ug/kg/min, iv

[7] = system: Plasma; format: functional, Homo sapiens
Description: Anticoagulant activity in human plasma assessed as concentration required to double activated partial thromboplastin time

[8] = molecular target: T3, Prothrombin; remark: listed apart in the source
Description: Binding affinity to thrombin (unknown origin)

[9] = molecular target: T4, Trypsin (Homo sapiens, UniProt P07477+P07478+P35030); format: protein assay
Description: Inhibition of human trypsin assessed as release of p-nitroanilide from chromogenic substrate

[10] = molecular target: T4, Trypsin; format: protein assay; remark: listed apart in the source
Description: Inhibition of trypsin (unknown origin)

[11] = molecular target: T3, Prothrombin; remark: listed apart in the source
[12] = molecular target: T2, Coagulation factor VII/tissue factor; format: protein-complex assay; remark: listed apart in the source
[13] = in vivo; details: dog, po, 1 mg/kg
Description: Half life in dog at 1 mg/kg, po

[14] = physchem; details: buffer, pH 7.4
Description: Aqueous solubility at pH 7.4

T2 sequence (P08709 61-212 limits assumed): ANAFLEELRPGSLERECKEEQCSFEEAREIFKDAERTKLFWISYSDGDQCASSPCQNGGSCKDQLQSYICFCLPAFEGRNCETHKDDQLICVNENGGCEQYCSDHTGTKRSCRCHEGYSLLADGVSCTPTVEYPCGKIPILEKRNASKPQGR
T2 sequence (P08709 213-466 limits assumed): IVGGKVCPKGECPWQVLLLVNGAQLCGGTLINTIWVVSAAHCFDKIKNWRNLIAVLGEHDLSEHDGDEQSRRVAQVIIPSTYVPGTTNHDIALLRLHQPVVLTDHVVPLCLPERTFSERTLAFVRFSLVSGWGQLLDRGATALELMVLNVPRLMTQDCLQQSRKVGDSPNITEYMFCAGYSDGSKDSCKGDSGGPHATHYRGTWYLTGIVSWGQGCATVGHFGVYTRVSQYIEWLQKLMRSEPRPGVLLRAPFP
T2 sequence (P13726 33-295 partner limits assumed): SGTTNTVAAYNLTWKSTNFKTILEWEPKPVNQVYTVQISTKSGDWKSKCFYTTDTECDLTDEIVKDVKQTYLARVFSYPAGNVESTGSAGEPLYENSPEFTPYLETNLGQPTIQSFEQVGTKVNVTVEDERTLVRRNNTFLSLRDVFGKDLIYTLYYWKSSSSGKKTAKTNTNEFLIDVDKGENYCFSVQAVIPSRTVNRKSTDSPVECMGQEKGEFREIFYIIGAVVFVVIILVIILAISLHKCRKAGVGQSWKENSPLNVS
T1 sequence (P00742 41-179 limits assumed): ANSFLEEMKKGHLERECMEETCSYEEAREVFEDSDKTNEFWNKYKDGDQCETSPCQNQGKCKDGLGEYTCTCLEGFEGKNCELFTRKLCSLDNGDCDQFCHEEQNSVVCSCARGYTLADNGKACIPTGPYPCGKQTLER
T1 sequence (P00742 235-488 limits assumed): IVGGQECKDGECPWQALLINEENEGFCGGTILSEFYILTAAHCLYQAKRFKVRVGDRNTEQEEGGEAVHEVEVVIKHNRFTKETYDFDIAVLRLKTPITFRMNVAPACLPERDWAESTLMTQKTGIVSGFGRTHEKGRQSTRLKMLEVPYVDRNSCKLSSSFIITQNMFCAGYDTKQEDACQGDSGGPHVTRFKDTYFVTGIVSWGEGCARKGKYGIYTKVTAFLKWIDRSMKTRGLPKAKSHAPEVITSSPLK

Cp [1]: 3 µg/mL
Structure (SMILES): Cc1nc(N)ccc1CNC(=O)Cn1c(C)cnc(NCCc2ccccc2)c1=O [L-375378]

IC50 [2]: > 200 µM
IC50 [3]: 1.3 µM
IC50 [4]: > 200 µM
Structure (SMILES): O=c1oc(-c2c(F)cccc2F)nc2cnccc12

IC50 [5]: > 100 µM
Cp [6]: 107 µg/mL
Structure (SMILES): CC(C)Nc1nc(Cl)c(-c2cc(N)cc(C(=O)O)c2)n(CC(=O)NCc2ccc(C(=N)N)cc2)c1=O

IC50 [2]: 32 µM
IC50 [3]: 2.8 µM
IC50 [4]: 14.4 µM
Structure (SMILES): O=c1oc(-c2ccccc2F)nc2ncccc12

Structure (SMILES): O=C(Cn1c(Cl)cnc(NCC(F)(F)c2ccccn2)c1=O)NCc1cc(Cl)ccc1-n1cnnn1
2aPTT [7]: 180 nM
Ki [8]: 1.4 to 1.5 pM

IC50 [3]: > 200 µM
Structure (SMILES): O=c1oc(-c2ccccc2F)nc2nccnc12

Ki [9]: 3.2 µM
Structure (SMILES): Cc1nc(N)ccc1CNC(=O)Cn1c(C)ccc(NS(=O)(=O)Cc2ccccc2)c1=O [L-374087]

Structure (SMILES): Cc1cnc(NCC(F)(F)c2ccccn2)c(=O)n1CC(=O)NCc1ncccc1F
2aPTT [7]: 670 nM
Ki [10]: 252 µM

Structure (SMILES): O=C(Cn1c(Cl)cnc(NCC(F)(F)c2cccc[n+]2[O-])c1=O)NCc1cc(Cl)ccc1-n1cnnn1
2aPTT [7]: 130 nM

IC50 [11]: 100 µM
IC50 [12]: 0.2 µM
Structure (SMILES): N=C(N)NCCC[C@H](NC(=O)[C@H](Cc1cccnc1)NC(=O)[C@H](Cc1ccccc1)NS(=O)(=O)c1ccccc1)C(=O)c1nccs1

Ki [9]: 200 µM
Structure (SMILES): Cc1cnc(NCCc2ccccn2)c(=O)n1CC(=O)NCc1cc2cc[nH]c2cn1

Structure (SMILES): O=C(Cn1c(Cl)cnc(NCC(F)(F)c2ccccn2)c1=O)NCc1cc(Cl)ccc1-n1cncn1
2aPTT [7]: 170 nM

Structure (SMILES): Cc1nc(N)ccc1CNC(=O)Cn1c(C)cnc(NCC(F)(F)c2ccccn2)c1=O
2aPTT [7]: 200 nM
Ki [10]: 0.8 µM

IC50 [2]: 90 µM
IC50 [3]: 2.6 µM
Structure (SMILES): O=c1oc(-c2ccccc2F)nc2cnccc12

Structure (SMILES): O=C(Cn1c(Cl)cnc(NCC(F)(F)c2cccc[n+]2[O-])c1=O)NCc1ccccc1F
2aPTT [7]: 400 nM

IC50 [5]: > 30 µM
Structure (SMILES): CC(C)Nc1ccc(-c2cccc(N)c2)c(CC(=O)NCc2ccc(C(=N)N)cc2)c1F

Structure (SMILES): O=C(Cn1c(Cl)cnc(NCC(F)(F)c2cccc[n+]2[O-])c1=O)NCc1ncccc1Cl
2aPTT [7]: 470 nM

Ki [9]: 290 µM
Structure (SMILES): Cc1cnc(NCCc2ccccn2)c(=O)n1CC(=O)NCc1ccc2[nH]ccc2c1

Ki [9]: > 100 µM
Structure (SMILES): Cc1cnc(NCCc2ccccc2)c(=O)n1CC(=O)NCc1ccc2[nH]ccc2c1

Ki [9]: 95 µM
Structure (SMILES): Cc1cnc(NCCc2ccccc2)c(=O)n1CC(=O)NCc1cc2cc[nH]c2cn1

IC50 [2]: 112 µM
IC50 [3]: 0.82 µM
IC50 [4]: > 200 µM
Structure (SMILES): O=c1oc(-c2c(F)cccc2F)nc2cc([N+](=O)[O-])ccc12

IC50 [2]: > 200 µM
IC50 [3]: 15 µM
IC50 [4]: > 200 µM
Structure (SMILES): CCSc1ncc2c(=O)oc(-c3ccccc3F)nc2n1

Structure (SMILES): N#Cc1cnc(NCC(F)(F)c2ccccn2)c(=O)n1CC(=O)NCc1ncccc1F
half-life [13]: 6.6 to 9.7 h
2aPTT [7]: 410 nM
Ki [10]: 213 µM

Structure (SMILES): O=C(Cn1c(Cl)cnc(NCC(F)(F)c2ccccn2)c1=O)NCc1ncccc1F [DPOC-4088]
solubility [14]: 11 µg/mL (≈ 24.3 µM)
half-life [13]: 6.6 to 9.7 h
2aPTT [7]: 780 nM
Ki [10]: 202 µM

Structure (SMILES): O=C(Cn1c(Cl)cnc(NCC(F)(F)c2cccc[n+]2[O-])c1=O)NCc1cc(Cl)ccc1-n1cncn1
2aPTT [7]: 200 nM

IC50 [2]: 174 µM
IC50 [3]: 1.4 µM
IC50 [4]: 134 µM
Structure (SMILES): O=c1oc(-c2c(F)cccc2F)nc2cc(C(F)(F)F)ccc12

IC50 [2]: > 200 µM
IC50 [3]: 18 µM
IC50 [4]: 129 µM
Structure (SMILES): Cc1ccccc1-c1nc2c(cnn2C)c(=O)o1

Structure (SMILES): O=C(Cn1c(Cl)cnc(NCC(F)(F)c2cccc[n+]2[O-])c1=O)NCc1ncccc1F
solubility [14]: 44 µg/mL (≈ 93.9 µM)
2aPTT [7]: 540 nM
